# In article PMC9025941, “Influence of the Type of Amino Acid on the Permeability and Properties of Ibuprofenates of Isopropyl Amino Acid Esters” (International Journal of Molecular Sciences, 2022):
# Values joined by “and” are separate entries in the source; they are usually repeats but may differ in a detail not shown here. Equal values may be shown once. Read-outs that look alike come from different tables or passages of the source. Marks after values point to notes of the source that are not given here.
# Key:
# [1] = In vitro skin permeation, Franz diffusion cells; settings: for Q%24 h, the percentage of the applied dose permeated after 24 h / Cumulative Permeation Mass / LT, lag time: n = 3; for Q%24 h, the percentage of the applied dose permeated after 24 h / Cumulative Permeation Mass: 24 h; for EF, enhancement factor: relative to IBU; for JSS, steady-state flux: saturated solution in PBS pH 7.4, n = 3
# [2] = n-octanol-water partition coefficient, shake flask method; settings: shake flask, 25 °C
# [3] = Solubility in organic solvents by modified Vogel's method; settings: 25 °C
# [4] = Solubility (saturation concentration) in deionised water and PBS pH 7.4, HPLC; settings: for Solubility in Phosphate Buffer pH = 7.4: PBS pH 7.4, 32 °C; for Solubility in Water: 25 °C
# [5] = Thermal stability (TG/DTG): decomposition onset and maximum mass-loss rate temperature
# Method: In Figure 5, the thermal stability of ibuprofen and amino acid isopropyl ester ibuprofenates was determined and compared. All TG, DTG, and c-DTA curves are in the Supplementary Materials (Figures S87–S100). The decomposition onset temperature (Tonset) and the temperature of the maximum rate of mass loss (Tmax) were determined.
# [6] = 24 h penetration, n = 3
# [7] = saturated solution in PBS pH 7.4, mass of compound
# [8] = saturated solution in PBS pH 7.4, mass of ibuprofen
Compound,"Q%24 h, the percentage of the applied dose permeated after 24 h [1]","Cumulative Permeation Mass [1, 7]","Cumulative Permeation Mass [1, 8]","LT, lag time [1]","EF, enhancement factor [1]","JSS, steady-state flux [1]",Log P (n-octanol-water partition coefficient) [2],Solubility in DMSO [3],Solubility in chloroform [3],Solubility in dichloromethane [3],Solubility in diethyl ether [3],Solubility in ethanol [3],Solubility in ethyl acetate [3],Solubility in n-hexane [3],Solubility in toluene [3],Solubility in Phosphate Buffer pH = 7.4 ([4]; g of active compound (IBU)),Solubility in Phosphate Buffer pH = 7.4 ([4]; g of compound),Solubility in Water ([4]; g of active compound (IBU)),Solubility in Water ([4]; g of compound),"Tonset, the onset temperature of the thermal degradation [5]",other results
"CC(C)Cc1ccc(C(C)C(=O)O)cc1.CC(C)OC(=O)[C@@H](N)Cc1ccccc1 [[L-PheOiPr][IBU], L-phenylalanine isopropyl ester ibuprofenate]",35.912 ± 0.539%,711.866 ± 5.956 ^b µg·cm^−2,355.088 ± 5.482 ^b µg IBU·cm^−2,1.368 ± 0.091 h,4.85,48.578 ± 4.836 µg IBU cm^−2 h^−1,2.207 ± 0.026,+ (soluble >100 mg cm^−3),+ (soluble >100 mg cm^−3),+ (soluble >100 mg cm^−3),+/− (partially soluble 33–100 mg cm^−3),+ (soluble >100 mg cm^−3),+ (soluble >100 mg cm^−3),− (insoluble <33 mg cm^−3),+ (soluble >100 mg cm^−3),1.017 ± 0.001 g IBU∙dm^−3,2.039 ± 0.001 g∙dm^−3,0.297 ± 0.024 g IBU∙dm^−3,0.595 ± 0.048 g∙dm^−3,175.8 °C,"KP, times higher than for ibuprofen [1]: 6.839 times"
"CC(C)Cc1ccc(C(C)C(=O)O)cc1.CC(C)OC(=O)[C@H](C)N [[L-AlaOiPr][IBU], L-alanine isopropyl ester ibuprofenate]",6.786 ± 0.214%,572.719 ± 18.05 ^b µg·cm^−2,350.100 ± 11.039 ^b µg IBU·cm^−2,1.691 ± 0.041 h,0.92,44.510 ± 0.861 µg IBU cm^−2 h^−1,0.719 ± 0.004,+ (soluble >100 mg cm^−3),+ (soluble >100 mg cm^−3),+ (soluble >100 mg cm^−3),+/− (partially soluble 33–100 mg cm^−3),+ (soluble >100 mg cm^−3),+ (soluble >100 mg cm^−3),− (insoluble <33 mg cm^−3),+ (soluble >100 mg cm^−3),5.159 ± 0.015 g IBU∙dm^−3,8.440 ± 0.024 g∙dm^−3,2.463 ± 0.008 g IBU∙dm^−3,4.030 ± 0.014 g∙dm^−3,78.3 °C,
"CC(C)C[C@H](N)C(=O)OC(C)C.CC(C)Cc1ccc(C(C)C(=O)O)cc1 [[L-LeuOiPr][IBU], L-leucine isopropyl ester ibuprofenate]",11.077 ± 0.236%,424.683 ± 9.060 ^b µg·cm^−2,230.824 ± 4.924 ^b µg IBU·cm^−2,1.742 ± 0.061 h,1.50,38.502 ± 1.553 µg IBU cm^−2 h^−1,1.391 ± 0.001,+ (soluble >100 mg cm^−3),+ (soluble >100 mg cm^−3),+ (soluble >100 mg cm^−3),+/− (partially soluble 33–100 mg cm^−3),+ (soluble >100 mg cm^−3),+ (soluble >100 mg cm^−3),− (insoluble <33 mg cm^−3),+ (soluble >100 mg cm^−3),2.084 ± 0.002 g IBU∙dm^−3,3.834 ± 0.003 g∙dm^−3,0.682 ± 0.038 g IBU∙dm^−3,1.255 ± 0.070 g∙dm^−3,109.5 °C,
"CC(C)Cc1ccc(C(C)C(=O)O)cc1.CC(C)OC(=O)[C@@H](N)CS [[L-CysOiPr][IBU], L-cysteine isopropyl ester ibuprofenate]",12.210 ± 1.119%,541.776 ± 49.664 ^b µg·cm^−2,305.756 ± 28.028 ^b µg IBU·cm^−2,1.873 ± 0.104 h,1.65,28.858 ± 2.984 µg IBU cm^−2 h^−1,1.430 ± 0.005,+ (soluble >100 mg cm^−3),+ (soluble >100 mg cm^−3),+ (soluble >100 mg cm^−3),,+ (soluble >100 mg cm^−3),+/− (partially soluble 33–100 mg cm^−3),− (insoluble <33 mg cm^−3),,2.440 ± 0.287 g IBU∙dm^−3,4.437 ± 0.287 g∙dm^−3,1.143 ± 0.253 g IBU∙dm^−3,2.048 ± 0.253 g∙dm^−3,190.2 °C,
"CC(C)Cc1ccc(C(C)C(=O)O)cc1.CC(C)OC(=O)[C@@H](N)CCCCN [[L-LysOiPr][IBU], L-lysine isopropyl ester ibuprofenate]",11.062 ± 0.475%,1011.106 ± 43.448 ^b µg·cm^−2,528.643 ± 22.716 µg IBU·cm^−2 and 528.643 ± 22.716 ^b µg IBU·cm^−2,1.423 ± 0.130 h,1.49,56.801 ± 4.129 µg IBU cm^−2 h^−1,,+ (soluble >100 mg cm^−3),− (insoluble <33 mg cm^−3),− (insoluble <33 mg cm^−3),− (insoluble <33 mg cm^−3),+ (soluble >100 mg cm^−3),− (insoluble <33 mg cm^−3),− (insoluble <33 mg cm^−3),− (insoluble <33 mg cm^−3),4.779 ± 0.061 g IBU∙dm^−3,9.140 ± 0.117 g∙dm^−3,5.047 ± 0.060 g IBU∙dm^−3,9.6534 ± 0.115 g∙dm^−3,,"Tonset, the onset temperature of the thermal degradation ([5]; TG): 177.9 °C"
"CC(C)Cc1ccc(C(C)C(=O)O)cc1.CC(C)Cc1ccc(C(C)C(=O)O)cc1.CC(C)OC(=O)[C@@H](N)CCCCN [[L-LysOiPr][IBU]2, L-lysine isopropyl ester bis(ibuprofenate)]",10.624 ± 0.474%,640.825 ± 28.577 ^b µg·cm^−2,220.016 ± 9.811 ^b µg IBU·cm^−2,1.333 ± 0.258 h,1.43,24.852 ± 2.857 µg IBU cm^−2 h^−1,,+ (soluble >100 mg cm^−3),− (insoluble <33 mg cm^−3),− (insoluble <33 mg cm^−3),− (insoluble <33 mg cm^−3),+ (soluble >100 mg cm^−3),− (insoluble <33 mg cm^−3),− (insoluble <33 mg cm^−3),− (insoluble <33 mg cm^−3),2.071 ± 0.118 g IBU∙dm^−3,6.032 ± 0.342 g∙dm^−3,2.012 ± 0.110 g IBU∙dm^−3,5.861 ± 0.322 g∙dm^−3,,"Accumulation in the skin [6]: 392.593 ± 111.434 µg IBU g^−1; Tonset, the onset temperature of the thermal degradation ([5]; TG): 183.7 °C"
